In brackets after ≈: the same amount, converted by molar mass.
Experiments:
[1] = system: Aspergillus fumigatus; experiment: In vitro minimum inhibitory concentration for antifungal activity against human pathogenic fungi Aspergillus fumigatus; type: functional
[2] = system: Candida albicans; experiment: In vitro minimum inhibitory concentration for antifungal activity against human pathogenic fungi Candida albicans; type: functional
[3] = system: Cryptococcus neoformans; experiment: In vitro minimum inhibitory concentration for antifungal activity against human pathogenic fungi Cryptococcus neoformans; type: functional
[4] = system: Sporothrix schenckii; experiment: In vitro minimum inhibitory concentration for antifungal activity against human pathogenic fungi Sporothrix schenck ii; type: functional
[5] = system: Trichophyton benhamiae; experiment: In vitro minimum inhibitory concentration for antifungal activity against human pathogenic fungi Trichophyton mentagrophytes; type: functional, Arthroderma benhamiae

CCOC(=O)/C(=C1/SCCC(C)S1)n1ccnc1 (stereo not given)
MIC [1]: 50 µg/mL (≈ 176 µM) | MIC [2]: > 100 µg/mL | MIC [3]: > 100 µg/mL | MIC [4]: > 100 µg/mL | MIC [5]: 25 µg/mL (≈ 87.9 µM)

CC1CCS/C(=C(/C#N)n2cnc3ccccc32)S1 (stereo not given)
MIC [1]: 50 µg/mL (≈ 174 µM) | MIC [2]: > 100 µg/mL | MIC [3]: > 100 µg/mL | MIC [4]: > 100 µg/mL | MIC [5]: > 100 µg/mL

CCN1/C(=C(\C#N)n2ccnc2)SCC1C (stereo not given)
MIC [1]: 25 µg/mL (≈ 107 µM) | MIC [2]: > 100 µg/mL | MIC [3]: > 100 µg/mL | MIC [4]: > 100 µg/mL | MIC [5]: 50 µg/mL (≈ 213 µM)

O=C(/C(=C1/SCCN1c1ccc(Cl)cc1)n1ccnc1)c1ccc(Cl)cc1
MIC [1]: > 100 µg/mL | MIC [2]: > 100 µg/mL | MIC [3]: > 100 µg/mL | MIC [4]: > 100 µg/mL | MIC [5]: > 100 µg/mL

N#CC(=C1SCCCS1)n1ccnc1
MIC [1]: 3.1 µg/mL (≈ 13.9 µM) | MIC [2]: 100 µg/mL (≈ 448 µM) | MIC [3]: > 100 µg/mL | MIC [4]: > 100 µg/mL | MIC [5]: 25 µg/mL (≈ 112 µM)

CCN1CCS/C1=C(/C#N)n1ccnc1
MIC [1]: 25 µg/mL (≈ 113 µM) | MIC [2]: > 100 µg/mL | MIC [3]: > 100 µg/mL | MIC [4]: > 100 µg/mL | MIC [5]: 25 µg/mL (≈ 113 µM)

CCOC(=O)C(=C1SCCCS1)n1ccnc1
MIC [1]: > 100 µg/mL | MIC [2]: > 100 µg/mL | MIC [3]: > 100 µg/mL | MIC [4]: > 100 µg/mL | MIC [5]: > 100 µg/mL

CC1CCS/C(=C(/C#N)n2ccnc2)S1 (stereo not given)
MIC [1]: 0.19 µg/mL (≈ 0.8 µM) | MIC [2]: 50 µg/mL (≈ 211 µM) | MIC [3]: > 100 µg/mL | MIC [4]: > 100 µg/mL | MIC [5]: 3.12 µg/mL (≈ 13.1 µM)

CC1=CS/C(=C(/C#N)n2ccnc2)S1
MIC [1]: 12.5 µg/mL (≈ 56.5 µM) | MIC [2]: > 100 µg/mL | MIC [3]: > 100 µg/mL | MIC [4]: > 100 µg/mL | MIC [5]: 12.5 µg/mL (≈ 56.5 µM)

O=C(/C(=C1/SCCN1c1ccccc1)n1ccnc1)c1ccc(Cl)cc1
MIC [1]: > 100 µg/mL | MIC [2]: > 100 µg/mL | MIC [3]: > 100 µg/mL | MIC [4]: > 100 µg/mL | MIC [5]: > 100 µg/mL

CC(=O)N1CCN(c2ccc(OC[C@H]3CO[C@](Cn4ccnc4)(c4ccc(Cl)cc4Cl)O3)cc2)CC1 [KETOCONAZOLE]
MIC [1]: 0.7 µg/mL (≈ 1.32 µM) | MIC [2]: 0.1 µg/mL (≈ 0.188 µM) | MIC [3]: 0.3 µg/mL (≈ 0.565 µM) | MIC [4]: 0.1 µg/mL (≈ 0.188 µM) | MIC [5]: 25 µg/mL (≈ 47 µM)

O=C(C(=C1SCCCS1)n1ccnc1)c1ccc(Cl)cc1
MIC [1]: 12.5 µg/mL (≈ 37.1 µM) | MIC [2]: > 100 µg/mL | MIC [3]: > 100 µg/mL | MIC [4]: > 100 µg/mL | MIC [5]: 12.5 µg/mL (≈ 37.1 µM)

Source: ChEMBL document CHEMBL1149979, “1,3-Dithian-2-ylidene and thiazolidin-2-ylidene derivatives as a novel class of antimycotic agents” (1997)
